Results taken from patent US20250281590A1, “IMMUNOGENIC COMPOSITIONS COMPRISING CONJUGATED ESCHERICHIA COLI SACCHARIDES AND USES THEREOF” (Pfizer Inc., priority 2024, published 2025).

Legend:
Assay in all cases: IgG dLIA with pAb standards, NHP sera, CpG study (Example 5)
Type in all cases: in vivo, rhesus macaque
[1] = test system: E. coli O-antigen serotype O25b; settings: 4 valent O-antigen SCP with CpG 1800 μg; after each vaccination; dLIA standard (pAb/mAb) not specified; listed as CpG
Experimental: (§1) The 4-plex O-antigen IgG dLIA serology assay was completed as follows: The primate serology assay utilized the same O-antigen MagPlex®-C microspheres (Luminex) as the mouse serology assay described in Example 3, above. Microspheres were incubated with serially diluted NHP serum samples, controls, and human polyclonal serum standards overnight at 2-8° C. while shaking. In this case, bound serotype-specific IgG was detected with PE-conjugated goat anti-human IgG. Fcγ fragment-specific secondary antibody (Jackson Laboratories) and fluorescence was measured on the FlexMap 3D instrument ([…]). Human serum containing IgG to all four O-antigens was used as an internal standard for interpolating NHP serum IgG concentrations. […] Lower limit of quantification (LLOQ) was defined as 2 U/mL.
(§2) In this study, the adjuvanting effect of nucleotide adjuvant CpG 24555 on immunogenicity of E. coli O-antigen SCP glycoconjugates of serotypes O1a, O2, O6, and O25b was assessed in a NHP (Rhesus Macaques) model.
(§3) 20 male rhesus macaques were selected for this study. Three groups of Rhesus macaques were vaccinated with the 4 valent O-antigen SCP glycoconjugates including one group without CpG adjuvant, one group with CpG adjuvant and a lower dose of the 4 valent O-antigen SCP glycoconjugates, and one group with CpG adjuvant and a higher dose of 4 valent O-antigen SCP glycoconjugates. The no adjuvant control group, as well as the group with CpG adjuvant and the higher dose of glycoconjugates included 2 μg of serotypes O1a, O2, and O6, as well as 4 μg of serotype O25b. The group with CpG adjuvant and the lower dose of glycoconjugates included 0.5 μg of serotypes O1a, O2, and O6, as well as 1 μg of serotype O25b. Vaccination was administered at months 0, 2, and 6. Animals were bled prior to vaccination and at weeks 1, 2, 4, 6, 9, 10, 12, 25, and 26. 0.5 mL of vaccine formulation was injected intramuscularly (IM).
(§4) Geometric mean titers (GMTs) of IgG antibodies specific for each of the respective 0-antigen serotypes O1a, O2, O6, and O25b were quantified using a Luminex 4-plex dLIA assay. The 4-plex O-antigen IgG dLIA serology assay was completed as described in Example 4, above. Table 21 and 22, below, present data for IgG GMT titers for each of serotypes O1a, O2, O6, and O25b.

[2] = test system: E. coli O-antigen serotype O1a; settings: 4 valent O-antigen SCP with CpG 1800 μg; dLIA standard (pAb/mAb) not specified; listed as CpG
Experimental: as §1, §2, §3, §4

[3] = test system: E. coli O-antigen serotype O6; settings: 4 valent O-antigen SCP with CpG 1800 μg, dLIA standard (pAb/mAb) not specified
Experimental: as §1, §2, §3, §4

[4] = test system: E. coli O-antigen serotype O2; settings: 4 valent O-antigen SCP with CpG 1800 μg, dLIA standard (pAb/mAb) not specified
Experimental: as §1, §2, §3, §4

CpG 24555 [CpG adjuvant]
Serotype O25b IgG titers, fold increase vs. unadjuvanted titers [1]: greater than twenty-fold increases | Serotype O1a IgG titers, fold increase vs. unadjuvanted titers [2]: greater than twenty-fold increases | Serotype O6 IgG titers, fold increase vs. unadjuvanted titers [3]: less than 10 fold | Serotype O6 IgG titers, fold increase vs. unadjuvanted titers ([3]; listed as CpG): up to ten-fold increases | Serotype O2 IgG titers, fold increase vs. unadjuvanted titers [4]: less than 10 fold | Serotype O2 IgG titers, fold increase vs. unadjuvanted titers ([4]; listed as CpG): up to ten-fold increases
